# Assays:
# Assay in all cases: apoptosis, AnnexinV-FITC/PI flow cytometry
# Assay type in all cases: cell-based
# HepG2 = settings: 24 h, dosage not given
# Source text: (§1) The tumor cells growing in the logarithmic phase were digested with trypsin, collected by centrifugation to prepare a suspension, the cells were counted and adjusted to a certain concentration (6×10^5 cells per mL for AGS, T47D, Caco2, BCPAP, GES, HUVEC; 5×10^5 cells per mL for HepG2, MDA-MB-231, BGC-823, A549, PC3, L02; 3×10^5 cells per mL for 143B, HOS, U2, SGC-7901, Hela, BV-2; 1.8×10^6 cells per mL for WI-38), and the cells at a certain concentration were transferred to a 6-well plate at a concentration of 1 mL per well. The cells were cultured in a cell culture incubator for 12 h to allow the cells to adhere to the wall. The corresponding dosages of a quercetin 3,3′-dimethyl ether solution were added (the dosage of osteosarcoma cells was 143B: 4 mg/L, HOS: 4 mg/L, U2: 10 mg/L; the dosage of breast cancer cells was MDA-MB-231: 2 mg/L, T47D: 3 mg/L; the dosage of gastric cancer cells was SGC7901: 6 mg/L, BGC823: 5 mg/L, AGS: 3 mg/L; the dosage of cervical cancer Hela cells was 2 mg/L; the dosage of lung cancer cell A549 was 3 mg/L; the dosage of intestinal cancer cells Caco2 was 4 mg/L; the dosage of mouse glioma BV2 was 4 mg/L; the dosage of human prostate cancer cells PC3 was 6 mg/L; and the dosage of human thyroid cancer cells BCPAP was 2 mg/L). While DMSO was used as a solvent control, and then incubated for 24 h. After acting for 24 h, the cells were collected by centrifugation at 300 g, 4° C. for 5 min, a supernatant was discarded, and the cells were washed twice with pre-cooled PBS, each time with centrifugation at 300 g, 4° C. for 5 min. (1˜5)×10^5 cells were collected and resuspended in […] 1× BindingBuffer. 5 μl of AnnexinV-FITC and 5 μl of PI were added, and mixed well gently. The cells were reacted at room temperature for 10 min in the dark. 400 μl of 1× Binding Buffer was added, mixed well, and the samples were detected by flow cytometry within 1 h. The analysis was conducted according to a standard detection procedure of flow cytometry, at an excitation wavelength of 488 nm, and 20,000 cells were counted, and obtained results were analyzed with cell cycle fitting software ModFit.
# [1] = test system: breast cancer cells MDA-MB-231; settings: 2 mg/L, 24 h
# Source text: as §1
# breast cancer cells T47D = settings: 3 mg/L, 24 h
# Source text: as §1
# [2] = test system: cervical cancer Hela cells; settings: 2 mg/L, 24 h
# Source text: as §1
# gastric cancer cells AGS = settings: 3 mg/L, 24 h
# Source text: as §1
# [3] = test system: gastric cancer cells BGC-823; settings: 5 mg/L, 24 h
# Source text: as §1
# [4] = test system: human prostate cancer cells PC3; settings: 6 mg/L, 24 h
# Source text: as §1
# [5] = test system: intestinal cancer cells Caco2; settings: 4 mg/L, 24 h
# Source text: as §1
# lung cancer cell A549 = settings: 3 mg/L, 24 h
# Source text: as §1
# mouse glioma BV2 = settings: BV-2; 4 mg/L; 24 h
# Source text: as §1
# osteosarcoma cells 143B = settings: 4 mg/L, 24 h
# Source text: as §1
# osteosarcoma cells HOS = settings: 4 mg/L, 24 h
# Source text: as §1
structure (smiles),measurement,setting,value
"COc1cc(-c2oc3cc(O)cc(O)c3c(=O)c2OC)ccc1O [Quercetin 3,3′-dimethyl ether, quercetin 3,3′-dimethyl ether]",Treatment apoptosis ratio %,HepG2,32.36 ± 5.26 %
same,Treatment apoptosis ratio %,[1],29.85 ± 4.49 %
same,Treatment apoptosis ratio %,breast cancer cells T47D,16.98 ± 1.37 %
same,Treatment apoptosis ratio %,[2],20.05 ± 4.31 %
same,Treatment apoptosis ratio %,gastric cancer cells AGS,29.47 ± 2.25 %
same,Treatment apoptosis ratio %,[3],26.68 ± 3.45 %
same,Treatment apoptosis ratio %,[4],21.13 ± 5.11 %
same,Treatment apoptosis ratio %,[5],22.81 ± 3.72 *^ %
same,Treatment apoptosis ratio %,lung cancer cell A549,20.28 ± 3.23 %
same,Treatment apoptosis ratio %,mouse glioma BV2,18.65 ± 0.39 %
same,Treatment apoptosis ratio %,osteosarcoma cells 143B,24.72 ± 2.82 %
same,Treatment apoptosis ratio %,osteosarcoma cells HOS,23.09 ± 4.36 %

# From patent US20240173289A1, “USE OF OXYMETHYL-MODIFIED DERIVATIVE OF QUERCETIN IN PREPARATION OF DRUG FOR INHIBITING TUMOR CELL PROLIFERATION” (ZHEJIANG UNIVERSITY, priority 2021, published 2024)
